Reference: patent US5079257A, “Indoloquinone compounds” (priority 1986, dated 1992)
In brackets after ≈: the same amount, converted by molar mass. Where two headings read alike, the source gives them in different places.

Key:
Ovarian (MRI-H-207) line = type: in vivo, human
Source text: The xenograft experiments have been carried by Dr. H. H. Fiebig of the University of Freiburg [Lung-NSCLC (LXGF) line, Renal line, Breast line; See: H. H. Fiebig et al., Behring Inst. Mitt., 74 343] and by Dr. E. Boven of the Free University Hospital Amsterdam [Ovarian (MRI-H-207) line; See: E. Boven et al., Cancer Res., 45, 86 (1985) and E. Boven et al., Eur. J. Clin. Oncol., 21, 1253 (1985)].
Mice: C57B1 athymic (nu/nu) female mice, 8 to 10 weeks of age were used for s.c. bilateral implantation of tumour fragments 2 mm diameter.
Treatment: E.O. 9 was dissolved in saline at a concentration of 0.5 mg/ml prior to administration. Drug doses and schedules were derived from studies in experimental murine tumour systems and from orientation studies in non-tumour-bearing nude mice. Treatment was started i.v. when tumours measured 50-150 mm^3. After randomization a group of 6-7 tumour-bearing mice was treated and a group of 5-6 tumour-bearing mice served as control.
Evaluation of efficacy: Tumours were measured twice weekly in three dimensions. Efficacy was expressed as the mean of relative tumour volume in treated animals vs. that in control animals×100 (% T/C). The optimal value was calculated within 35 days after the last injection. Toxic death (dead mice within two weeks after the last injection) were excluded from the evaluation.
MRI-H-207: An undifferentiated adenocarcinoma kindly provided by Dr. A. E. Bogden, Worcester, Mass, with a doubling time of 3-5 days.

[1] = system: R-1 cells (Rhabdomyosarcoma Cells); test: R-1 activity (bioliquid assay), cytotoxicity; type: cell-based; details: Rhabdomyosarcoma cell
Source text: The indoloquinones II (formula II) have been tested in respect of their cytotoxic activity against L1210 cells and R-1 cells (Rhabdomyosarcoma Cells) in a bioliquid assay at the department of oncology of the Free University of Amsterdam (Table I). […] (Table II). Eight indoloquinones (E.O. 1, E.O. 2, E.O. 4, E.O. 4A, E.O. 8, E.O. 9, E.O. 33 and E.O. 35) have been tested in a panel of five human tumour lines (TNO Rijswijk; Table III).
For the determination of the R-1 activity, Rhabdomyosarcoma cells were brought into Falcon multiwells (growth area: 9.6 cm^2) (~10^6 cells per dish) containing 3 ml of Dulbecco's medium supplemented with 10% Foeto Calf Serum (FCS). […] Thereupon the drug solution was removed and the cells were covered with fresh medium. After 48 hours the cells were trypsinized and counted on a Sysmex microcell counter (CC110).
(§1) The in vitro L1210 and R-1 activities of the indoloquinones (formula III), were also determined in the bioliquid assays as described above.

L1210 cells = test: L1210 activity (bioliquid assay), cytotoxicity; type: cell-based; details: Mus musculus, L1210, 48 h, read-out: ID-50 L1210, Table VIII
Source text: The indoloquinones II (formula II) have been tested in respect of their cytotoxic activity against L1210 cells and R-1 cells (Rhabdomyosarcoma Cells) in a bioliquid assay at the department of oncology of the Free University of Amsterdam (Table I). In addition to this seven compounds (E.O. 1, E.O. 2, E.O. 4, E.O. 7, E.O. 9, E.O. 16 and E.O. 17) have been tested on L1210 activity in a clonogenic assay at TNO, Rijswijk. Further, the lowest active doses of the compounds E.O. 1, E.O. 2, E.O. 4 and E.O. 9 have been determined at TNO Rijswijk, according to the method described by Lamberts et al. [Oncology, 40, 301 (1983)]. (Table II). Eight indoloquinones (E.O. 1, E.O. 2, E.O. 4, E.O. 4A, E.O. 8, E.O. 9, E.O. 33 and E.O. 35) have been tested in a panel of five human tumour lines (TNO Rijswijk; Table III). From the latter group three indoloquinones (E.O. 1, E.O. 4 and E.O. 9) have been selected for a cytotoxicity study, involving five slowly growing human tumour lines (University of Freiburg; Table IV).
For this purpose, L1210 cells were grown, as suspension, in Falcon multi-wells (growth area: 9.6 cm^2) using RPMI supplemented with 15% FCS and 2-mercapto-ethanol (60 μmol) as medium. In this medium, the cells were continuously incubated with the compound to be tested at 37° C. in an atmosphere of 5% CO2 in humidified air for 48 hours. Thereupon they were counted on a Sysmex microcell counter (CC110).
as §1

[2] = system: A 204 cells; rhabdomyosarcoma; test: In vitro panel of human tumour lines (TNO): A 204; type: cell-based; details: about 72 hours; also: key: -: no inhibition of cell growth; +: total cell-kill
Description: (§2) Compounds E.O. 1, E.O. 2, E.O. 4, E.O. 4A, E.O. 8, E.O. 9, […], E.O. 33, and E.O. 35 were tested for their activity against five human tumour cell lines at the Radiobiological Institute TNO Rijswijk.
(§3) The new in vitro prescreen uses human tumour clones; it was set up by Dr. P. Lelieveld at TNO Rijswijk and comprises testing compounds in a bioliquid assay for their cytostatic activity against the following five human tumour lines:
(§4) After a continuous exposure to the drugs to be tested and to Adriamycin in `24 well tissue culture clusters, type 3524 (Costar)`, the remaining cells are fixed and stained. Using increasing drug concentrations the inhibiting concentration can be estimated qualitatively.
(§5) Cells: the human tumour cells are maintained in Dulbecco's medium supplemented with 10 percent foetal calf serum.
(§6) A, T and Z cell suspensions: 5·10^4 cells/ml
(§7) The cells were grafted into 16 mm wells for 48 hours (0.5 ml cell suspension per well was used).
(§8) Drugs: the compound to be tested was dissolved in appropriate concentrations in a mixture of Hepes-buffered Hanks' balanced salt solution and ethanol. The drug solutions (0.05 ml) were added to the different wells. The final ethanol concentration in each well was less than one percent.
(§9) The cells were continuously incubated with the compound under test at 37° in an atmosphere of 10 percent CO2 in humidified air for about 72 hours.
(§10) Determination of the inhibiting dose: the cells were fixed and stained with a solution of crystal violet in methanol/formaldehyde.

MCF7 breast cancer cells = test: In vitro panel of human tumour lines (TNO): MCF-7; type: cell-based; details: about 72 hours; also: key: -: no inhibition of cell growth; +: total cell-kill
Description: as §2, §3, §4, §5
(§11) M and W cell suspensions: 10^5 cells/ml.
as §7, §8, §9, §10

[3] = system: T 24 cells; bladder carcinoma; test: In vitro panel of human tumour lines (TNO): T 24; type: cell-based; details: about 72 hours; also: key: -: no inhibition of cell growth; +: total cell-kill
Description: as §2, §3, §4, §5, §6, §7, §8, §9, §10

WiDr cells; colon tumour = test: In vitro panel of human tumour lines (TNO): WiDr; type: cell-based; details: about 72 hours; also: key: -: no inhibition of cell growth; +: total cell-kill
Description: as §2, §3, §4, §5, §11, §7, §8, §9, §10

IgR37 cells melanoma = test: In vitro panel of human tumour lines (TNO): IgR-37; type: cell-based; details: about 72 hours; also: key: -: no inhibition of cell growth; +: total cell-kill
Description: as §2, §3, §4, §5, §6, §7, §8, §9, §10

P 388 tumour cells = test: In vivo P388 experiments (Brussels); design: species or system mice; details: 100 mg/kg, days 1 to 5
Description: These experiments were carried out at the Institute Jules Bordet, Brussels, on CDF, female mice. The mice were inoculated intraperitoneally (IP) with 1×10^6 P 388 tumour cells. After 24 hours, the compounds were administrated as suspensions in "Tween-80" or using saline as vehicle. Six mice were used at each dose of the compound, given on days 1 to 5 and eighteen control mice were injected with saline.

[4] = 60 mg/kg, days of treatment 0,6,13,20

O=c1[nH]cc(F)c(=O)[nH]1 [5FU]
T/C % (Ovarian (MRI-H-207) line; [4]): 63% | toxic deaths (Ovarian (MRI-H-207) line; [4]): 0/7

O=P1(N(CCCl)CCCl)NCCCO1 (stereo not drawn) [CTX]
toxic deaths (Ovarian (MRI-H-207) line): 2/7

N.N.O=C([O-])C1(C(=O)[O-])CCC1.[Pt+2] [Carboplatin]
toxic deaths (Ovarian (MRI-H-207) line; 60 mg/kg, days of treatment 0.6): 0/6

COc1cccc2c1C(=O)c1c(O)c3c(c(O)c1C2=O)C[C@@](O)(C(=O)CO)C[C@@H]3O[C@H]1C[C@H](N)[C@H](O)[C@H](C)O1 [DXR]
toxic deaths (Ovarian (MRI-H-207) line; 10 mg/kg, days of treatment 0.7): 1/6

CC(=O)OCc1c2c(n(C)c1/C=C/CO)C(=O)C=C(N1CC1)C2=O [E.O. 4A, 3-Acetoxymethyl-5-aziridino-1-methyl-2-[1H-indole-4,7-dione]prop-β-en-α-ol]
IC50 ([1]; read-out: ID-50 R-1, Table I, bioliquid assay): 0.02 µg/mL (≈ 0.0605 µM) | IC50 ([1]; read-out: ID-50 R-1, Table VIII): 0.022 µg/mL (≈ 0.0666 µM) | IC50 (L1210 cells): 0.15 µg/mL (≈ 0.454 µM) | in vitro activity score, A 204 ([2]; 0.01 μg/ml): - | in vitro activity score, A 204 ([2]; 0.1 μg/ml): - | in vitro activity score, A 204 ([2]; 1.0 μg/ml): + | in vitro activity score, A 204 ([2]; 10 μg/ml): + | in vitro activity score, MCF-7 (MCF7 breast cancer cells; 0.01 μg/ml): - | in vitro activity score, MCF-7 (MCF7 breast cancer cells; 0.1 μg/ml): - | in vitro activity score, MCF-7 (MCF7 breast cancer cells; 10 μg/ml): + | in vitro activity score, T 24 ([3]; 0.01 μg/ml): - | in vitro activity score, T 24 ([3]; 0.1 μg/ml): - | in vitro activity score, T 24 ([3]; 1.0 μg/ml): + | in vitro activity score, T 24 ([3]; 10 μg/ml): + | in vitro activity score, WiDr (WiDr cells; colon tumour; 0.01 μg/ml): - | in vitro activity score, WiDr (WiDr cells; colon tumour; 0.1 μg/ml): - | in vitro activity score, WiDr (WiDr cells; colon tumour; 1.0 μg/ml): + | in vitro activity score, WiDr (WiDr cells; colon tumour; 10 μg/ml): + | in vitro activity score, IgR-37 (IgR37 cells melanoma; 0.01 μg/ml): - | in vitro activity score, IgR-37 (IgR37 cells melanoma; 1.0 μg/ml): + | in vitro activity score, IgR-37 (IgR37 cells melanoma; 10 μg/ml): + | MAX T/C (P 388 tumour cells): 120%
